Assay results reported in patent publication US7790887B2, “Macrolide compound in solid form, process for preparation thereof, and pharmaceutical composition containing the same” (Eisai R&D Management Co., Ltd., priority 2007, dated 2010).

assay: Comparison of solubility: time required for complete dissolution of solid forms in pH 5.0 buffer; format: physicochemical; settings: 25 mM potassium acetate buffer solution (pH 5.0), room temperature, concentration of 5 mg/mL, shaken at about 100 rpm
Description: (Comparison of Solubility)
Next, the length of time required to dissolve about […] of the solid forms of formula (I) compound at room temperature in a pH 5.0 acetic acid buffer solution were measured.
After adding, at room temperature, a 25 mM potassium acetate buffer solution (pH 5.0) to, respectively, 10 mg of the white crystals prepared in Example 7, 10 mg of the amorphous powder prepared in Example 10, and 5 mg of the amorphous mass prepared in Example 11 in order to make a concentration of 5 mg/mL in each sample, the length of time required for complete dissolution under shaken at about 100 rpm was measured.

Structure (SMILES) | time required for dissolution
CCC(O)C(C)C1OC1CC(C)(O)/C=C/C=C(\C)C1OC(=O)CC(O)CCC(C)(O)C(OC(=O)N2CCN(C3CCCCCC3)CC2)/C=C/C1C (stereo not drawn) [Amorphous mass, (8E,12E,14E)-7-{(4-cycloheptylpiperazin-1-yl)carbonyl}oxy-3,6,16,21-tetrahydroxy-6,10,12,16,20-pentamethyl-18,19-epoxytricosa-8,12,14-trien-11-olide] | about 215 seconds
CCC(O)C(C)C1OC1CC(C)(O)/C=C/C=C(\C)C1OC(=O)CC(O)CCC(C)(O)C(OC(=O)N2CCN(C3CCCCCC3)CC2)/C=C/C1C (stereo not drawn) [Amorphous powder, (8E,12E,14E)-7-{(4-cycloheptylpiperazin-1-yl)carbonyl}oxy-3,6,16,21-tetrahydroxy-6,10,12,16,20-pentamethyl-18,19-epoxytricosa-8,12,14-trien-11-olide] | about 10 seconds
CCC(O)C(C)C1OC1CC(C)(O)/C=C/C=C(\C)C1OC(=O)CC(O)CCC(C)(O)C(OC(=O)N2CCN(C3CCCCCC3)CC2)/C=C/C1C (stereo not drawn) [Crystals, (8E,12E,14E)-7-{(4-cycloheptylpiperazin-1-yl)carbonyl}oxy-3,6,16,21-tetrahydroxy-6,10,12,16,20-pentamethyl-18,19-epoxytricosa-8,12,14-trien-11-olide] | about 32 seconds
